Nc1nc2ccc(OC(F)(F)F)cc2s1
solubility (mole fraction)
Details	278.15 K	283.15 K	288.15 K	293.15 K	298.15 K	303.15 K	308.15 K	313.15 K	318.15 K	323.15 K
in 2-methoxyethanol	0.383	0.398	0.405	0.419	0.428	0.436	0.449	0.459	0.469	0.478
in 2-propoxyethanol	0.449	0.461	0.469	0.485	0.496	0.504	0.514	0.521	0.53	0.538
in DMAc	0.0878	0.0968	0.106	0.116	0.129	0.142	0.156	0.17	0.188	0.203
in acetone	0.371	0.379	0.387	0.401	0.414	0.425	0.437	0.449	0.464	0.477
in acetonitrile	0.156	0.176	0.197	0.216	0.245	0.267	0.302	0.336	0.365	0.387
in ethanol	0.179	0.188	0.198	0.212	0.222	0.236	0.254	0.273	0.294	0.308
in isopropyl acetate	0.331	0.341	0.351	0.361	0.376	0.386	0.395	0.411	0.43	0.443
in n-butanol	0.185	0.197	0.207	0.221	0.236	0.254	0.268	0.288	0.313	0.337
in n-pentanol	0.197	0.205	0.216	0.231	0.249	0.264	0.281	0.303	0.325	0.342
in n-pentyl acetate	0.348	0.356	0.365	0.374	0.385	0.395	0.408	0.425	0.439	0.46
in n-propanol	0.179	0.189	0.202	0.215	0.23	0.249	0.267	0.287	0.312	0.333
in n-propyl acetate	0.349	0.36	0.368	0.377	0.389	0.398	0.414	0.429	0.446	0.463

From BigSolDB 2.1
